The values that follow are results of earlier work, collected in US20220056157A1, “PROCESS FOR FRACTIONATING AN ESTERIFIED CELLULOSE ETHER” (DOW GLOBAL TECHNOLOGIES LLC, priority 2015, published 2022).

Structures are written as SMILES. ≈ marks a conversion by molar mass, not a printed value.

For `CCOC(=O)N1c2ccc(C(F)(F)F)cc2[C@@H](N(Cc2cc(C(F)(F)F)cc(C(F)(F)F)c2)C(=O)OC)C[C@H]1CC` [Torcetrapib], the water solubility is 0.13 ng/mL (≈ 0.216 nM).
